Laboratory results published in patent US20250312258A1, “2,3-PYRROLIDINEDIONE CONJUGATES AND METHODS OF USING THEREOF” (North Carolina State University, priority 2022, published 2025).
Converted amounts (≈) assume the structure as drawn. Where two headings read alike, the source gives them in different places.

What was measured:
[1] = tested on: S. aureus 25923; assay: Broth microdilution MIC, S. aureus 25923; type: cell-based, Staphylococcus aureus; details: Staphylococcus aureus, 25923; read-out: MIC (S. aureus 25923)
[2] = tested on: S. aureus 29213; assay: Broth microdilution MIC, S. aureus 29213; type: cell-based, Staphylococcus aureus; details: Staphylococcus aureus
[3] = tested on: MRSA 33591; assay: Broth microdilution MIC, MRSA 33591; type: cell-based; details: Staphylococcus aureus, read-out: MIC (MRSA 33591)
[4] = tested on: VRSA; assay: MIC against VRSA (Table 2); type: cell-based; details: Staphylococcus aureus, read-out: MIC (VRSA)
[5] = tested on: VRSA; assay: MIC against VRSA strain panel (VRS/NRS strains); type: cell-based; details: Staphylococcus aureus, read-out: MIC
[6] = tested on: VRE; assay: MIC / in vitro activity against VRE strain panel; type: cell-based, Enterococcus spp.; details: Enterococcus, VRE, read-out: MIC
[7] = tested on: MRSA; assay: MIC against MRSA strain panel; type: cell-based; details: Staphylococcus aureus, the 4th table, read-out: MIC
[8] = tested on: MSSA; assay: MIC against MSSA strain panel; type: cell-based; details: Staphylococcus aureus, the 4th table, read-out: MIC

For `CCC1C(c2ccc(C(F)(F)F)cc2)=C(O)C(=O)N1CCCNCCCCNC` (stereo not shown) [Compound 8], the MIC [1] was 0.25 µg/mL (≈ 0.605 µM), the MIC ([2]; 29213, read-out: MIC (S. aureus 29213)) was 0.25 to 0.5 µg/mL (≈ 0.605 to 1.21 µM) and the MIC ([2]; ATCC 29213 / MRSA, ATCC 29213 MRSA, the 4th table, read-out: MIC) was 1 µg/mL (≈ 2.42 µM). The MIC ([2]; ATCC 29213 / MRSA, ATCC 29213 MRSA, the 5th table, read-out: MIC) was 1 µg/mL (≈ 2.42 µM), the MIC [3] was 0.5 µg/mL (≈ 1.21 µM) and the MIC [4] was 2 µg/mL (≈ 4.84 µM). It also gave an MIC ([5]; NRS 1 / VRSA, NRS-1 (VRSA), the 3rd table) of 4 µg/mL (≈ 9.67 µM), an MIC ([5]; NRS 1 / VRSA, NRS-1 VRSA, the 5th table) of 4 µg/mL (≈ 9.67 µM) and an MIC ([5]; NRS 2 / VRSA, NRS-2 VRSA, the 5th table) of 2 µg/mL (≈ 4.84 µM). The MIC ([5]; VRSA, VRS-1 (VRSA), the 3rd table) was 32 µg/mL (≈ 77.4 µM), the MIC ([5]; VRSA, VRS-1 VRSA, the 5th table) was 32 µg/mL (≈ 77.4 µM) and the MIC ([5]; VRSA, VRS-2 (VRSA), the 3rd table) was 8 µg/mL (≈ 19.3 µM). It also gave an MIC ([5]; VRSA, VRS-2 VRSA, the 5th table) of 8 µg/mL (≈ 19.3 µM), an MIC ([5]; VRSA, VRS-3a VRSA, the 5th table) of 4 µg/mL (≈ 9.67 µM) and an MIC ([5]; VRSA, VRS-3b VRSA, the 5th table) greater than 64 µg/mL. The MIC ([5]; VRSA, VRS-4 (VRSA), the 3rd table) was 16 µg/mL (≈ 38.7 µM), the MIC ([5]; VRSA, VRS-4 VRSA, the 5th table) was 16 µg/mL (≈ 38.7 µM) and the MIC ([5]; VRSA, VRS-5 VRSA, the 5th table) was 32 µg/mL (≈ 77.4 µM). The MIC ([5]; VRSA, VRS-6 VRSA, the 5th table) was 32 µg/mL (≈ 77.4 µM), the MIC ([5]; VRSA, VRS-7 VRSA, the 5th table) was 32 µg/mL (≈ 77.4 µM) and the MIC ([5]; VRSA, VRS-8 VRSA, the 5th table) was 64 µg/mL (≈ 155 µM). It also gave an MIC ([5]; VRSA, VRS-9 VRSA, the 5th table) of 64 µg/mL (≈ 155 µM), an MIC ([5]; VRSA, VRS-10 VRSA, the 5th table) of 32 µg/mL (≈ 77.4 µM) and an MIC ([5]; VRSA, VRS-11a VRSA, the 5th table) of 64 µg/mL (≈ 155 µM). It also gave an MIC ([5]; VRSA, VRS-11b VRSA, the 5th table) of 64 µg/mL (≈ 155 µM), an MIC ([6]; 1593 (VRE), the 3rd table) of 32 µg/mL (≈ 77.4 µM) and an MIC ([6]; 1593 VRE, the 4th table) of 32 µg/mL (≈ 77.4 µM). It also gave an MIC ([6]; 1751 (VRE), the 3rd table) of 16 µg/mL (≈ 38.7 µM), an MIC ([6]; 1751 VRE, the 6th table) of 16 µg/mL (≈ 38.7 µM) and an MIC ([6]; 1772 VRE, the 6th table) of 32 µg/mL (≈ 77.4 µM). The MIC ([6]; 1946 VRE, the 6th table) was 32 µg/mL (≈ 77.4 µM), the MIC ([6]; 2059 VRE, the 6th table) was 32 µg/mL (≈ 77.4 µM) and the MIC ([6]; 2431 (VRE), the 3rd table) was 32 µg/mL (≈ 77.4 µM). For the same molecule, the MIC ([6]; 2431 VRE, the 6th table) was 32 µg/mL (≈ 77.4 µM), the MIC ([6]; 2574 VRE, the 6th table) was 32 µg/mL (≈ 77.4 µM) and the MIC ([6]; 3053 VRE, the 6th table) was 32 µg/mL (≈ 77.4 µM). It also gave an MIC ([6]; 3183 (VRE), the 3rd table) of 16 µg/mL (≈ 38.7 µM), an MIC ([6]; 3183 VRE, the 6th table) of 16 µg/mL (≈ 38.7 µM) and an MIC ([6]; 3190 VRE, the 6th table) of 32 µg/mL (≈ 77.4 µM). The MIC ([6]; 3191 VRE, the 6th table) was 32 µg/mL (≈ 77.4 µM), the MIC ([6]; 3222 (VRE, the 3rd table)) was 16 µg/mL (≈ 38.7 µM) and the MIC ([6]; 3222 VRE, the 6th table) was 16 µg/mL (≈ 38.7 µM). For the same molecule, the MIC ([6]; 3235 VRE, the 6th table) was 16 µg/mL (≈ 38.7 µM), the MIC ([6]; 3239 VRE, the 6th table) was 32 µg/mL (≈ 77.4 µM) and the MIC ([6]; 3241 VRE, the 6th table) was 32 µg/mL (≈ 77.4 µM). The MIC ([6]; 3623 VRE, the 6th table) was 32 µg/mL (≈ 77.4 µM), the MIC ([7]; 6215 MRSA) was 1 µg/mL (≈ 2.42 µM) and the MIC ([7]; 6217 MRSA) was 0.5 µg/mL (≈ 1.21 µM). The MIC ([7]; 6218 MRSA) was 1 µg/mL (≈ 2.42 µM), the MIC ([7]; 6220 MRSA) was 1 µg/mL (≈ 2.42 µM) and the MIC ([7]; 6231 MRSA) was 0.5 µg/mL (≈ 1.21 µM). It also gave an MIC ([7]; AR-978 MRSA) of 1 µg/mL (≈ 2.42 µM), an MIC ([7]; AR-979 MRSA) of 0.5 µg/mL (≈ 1.21 µM) and an MIC ([7]; AR-993 MRSA) of 1 µg/mL (≈ 2.42 µM). The MIC ([7]; AR-997 MRSA) was 1 µg/mL (≈ 2.42 µM), the MIC ([8]; VGP16-94 MSSA) was 0.5 µg/mL (≈ 1.21 µM) and the MIC ([8]; VGP16-95 MSSA) was 1 µg/mL (≈ 2.42 µM). For the same molecule, the MIC ([8]; VGP16-96 MSSA) was 0.5 µg/mL (≈ 1.21 µM), the MIC ([8]; VGP16-97 MSSA) was 0.5 µg/mL (≈ 1.21 µM) and the MIC ([8]; VGP16-98 MSSA) was 0.5 µg/mL (≈ 1.21 µM). For the same molecule, the MIC ([8]; VGP16-99 MSSA) was 1 µg/mL (≈ 2.42 µM).
